The text below walks through data of ChEMBL document CHEMBL1201862, “PubChem BioAssay data set” (2004).

Broadly, the EC50 is the concentration that produces a half-maximal response. Broadly, the IC50 is the point on the concentration scale where inhibition reaches its midpoint. For orientation: AC50 means the midpoint of the concentration-response curve, whichever way the signal moves.

Activity calls are given as the source filed them.

Experiment [1] in a line: NIH-3T3 fibroblast cytotoxicity, dose response, cytotoxicity control, cell-based, fluorescence, Alamar Blue, secondary assay (AID 2327).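 Also: NIH-3T3 mouse fibroblasts cultured with fluconazole at 8 µg/mL.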 The experiment is classed as functional. Background: Alamar Blue is a resazurin reagent that responds to reducing activity.
Experiment [2] concerns HEK293. Briefly: inhibition of NOD1-driven NF-kB reporter – cell-based, luminescence, uHTS, primary screen (AID 1578). The format is functional. The note with it: Homo sapiens.
Experiment [3] has as its system HEK293. As to the kind of experiment: cells. The format is functional, cell-based. The note with it: Homo sapiens.
Experiment [4] is described as follows: fluconazole-exposed Candida albicans growth modulators – fluorescence, retest, confirmation (AID 2467). The experiment is classed as functional, cell-based.
The test system of experiment [5] is HEK293. As to the kind of experiment: cells. The note with it: Homo sapiens. The format is functional, cell-based. This is another data set of the same source.
Experiment [6] addresses Nucleotide-binding oligomerization domain-containing protein 2 (Homo sapiens, UniProt Q9HC29). As to the kind of experiment: inhibition of NOD2-driven NF-kB reporter – cell-based, luminescence, uHTS, HEK293 (AID 1566). The format is functional.
The test system of experiment [7] is HEK293. Briefly: NOD2 signaling inhibitors in MDP-stimulated cells, cell-based, uHTS, luminescence (AID 2001). The format is functional. The settings on record: Homo sapiens.
Experiment [8] can be described thus: Trypanosoma cruzi growth suppression in host cells – NIH3T3 host cells, beta-gal luminescence, confirmation (AID 2044).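 Also: intracellular parasites grown in NIH/3T3 mouse fibroblasts as host cells; luminescent beta-galactosidase reporter signal from transgenic T. cruzi replicating inside host cells; inhibitors lower the luminescence signal.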 The experiment is classed as functional, cell-based.
Experiment [9] concerns HEK293. As to the kind of experiment: cells. The note with it: Homo sapiens. The format is functional, cell-based. The source holds these as a separate data set.
Experiment [10] can be described thus: NIH3T3 cell viability loss – ATP luminescence, mouse fibroblasts, counter-screen, dose response (AID 2010).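 Also: cells exposed to compound for about 90 hours before reading.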 The format is functional, cell-based.
The target in experiment [11] is T1, Heat shock factor protein 1 (Mus musculus, UniProt P38532).
T1 sequence (P38532 whole entry): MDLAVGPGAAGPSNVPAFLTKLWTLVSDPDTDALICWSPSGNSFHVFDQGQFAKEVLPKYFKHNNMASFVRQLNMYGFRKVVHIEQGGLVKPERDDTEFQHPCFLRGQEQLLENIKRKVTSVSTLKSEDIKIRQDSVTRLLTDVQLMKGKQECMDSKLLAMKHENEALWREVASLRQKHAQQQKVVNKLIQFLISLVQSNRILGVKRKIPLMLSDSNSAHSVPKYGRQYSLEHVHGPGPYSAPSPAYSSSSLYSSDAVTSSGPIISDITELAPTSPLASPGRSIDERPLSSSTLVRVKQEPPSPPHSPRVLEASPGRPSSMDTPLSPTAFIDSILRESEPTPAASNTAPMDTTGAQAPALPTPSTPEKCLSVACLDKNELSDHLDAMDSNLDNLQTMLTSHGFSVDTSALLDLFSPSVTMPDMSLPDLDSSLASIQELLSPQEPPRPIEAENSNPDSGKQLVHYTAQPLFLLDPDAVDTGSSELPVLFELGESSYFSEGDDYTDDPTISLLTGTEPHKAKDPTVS
Briefly: enhancement of HSF1-driven luciferase signal – cell-based, NIH3T3, luminescence, dose retest, confirmation (AID 435004).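 Also: stress induced by proteasome inhibitor MG132 added 30 min after compound; luciferase reporter driven by HSF1 response element in NIH3T3 cells; actives raise luminescence as potentiators of the MG132 stress response.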 The experiment is classed as functional.

Experiment [12] in a line: reduction of Shn3 3'UTR-driven luciferase in osteoblasts – cell-based, Clone20 osteoblasts, firefly luciferase, cherry-picked, dose response (AID 624132).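 Also: firefly luciferase luminescence from reporter carrying the Shn3 3'UTR in osteoblasts.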 The experiment is classed as functional.
The nature of experiment [13]: loss of viability in HepG2 cells – cell-based, CellTiter-Glo, cherry-picked, cytotoxicity control for Shn3 inhibitor project, dose response (AID 624134). The experiment is classed as functional.
Experiment [14] is described as follows: non-specific 3'UTR reporter inhibition in Clone20-Shn3RL – cell-based, Renilla luciferase, cherry-picked, counter-screen for Shn3 inhibitor project, dose response (AID 624133). The format is functional. Background: Counterscreens check selectivity or assay interference.
The nature of experiment [15]: general cell-killing toxicity readout – plate reader, dry powder samples, cytotoxicity control for PAX8 inhibitor project, dose response (AID 743021). The experiment is classed as functional, cell-based.

Sequence of Nucleotide-binding oligomerization domain-containing protein 2 (Q9HC29 whole entry, the tested form may be a part): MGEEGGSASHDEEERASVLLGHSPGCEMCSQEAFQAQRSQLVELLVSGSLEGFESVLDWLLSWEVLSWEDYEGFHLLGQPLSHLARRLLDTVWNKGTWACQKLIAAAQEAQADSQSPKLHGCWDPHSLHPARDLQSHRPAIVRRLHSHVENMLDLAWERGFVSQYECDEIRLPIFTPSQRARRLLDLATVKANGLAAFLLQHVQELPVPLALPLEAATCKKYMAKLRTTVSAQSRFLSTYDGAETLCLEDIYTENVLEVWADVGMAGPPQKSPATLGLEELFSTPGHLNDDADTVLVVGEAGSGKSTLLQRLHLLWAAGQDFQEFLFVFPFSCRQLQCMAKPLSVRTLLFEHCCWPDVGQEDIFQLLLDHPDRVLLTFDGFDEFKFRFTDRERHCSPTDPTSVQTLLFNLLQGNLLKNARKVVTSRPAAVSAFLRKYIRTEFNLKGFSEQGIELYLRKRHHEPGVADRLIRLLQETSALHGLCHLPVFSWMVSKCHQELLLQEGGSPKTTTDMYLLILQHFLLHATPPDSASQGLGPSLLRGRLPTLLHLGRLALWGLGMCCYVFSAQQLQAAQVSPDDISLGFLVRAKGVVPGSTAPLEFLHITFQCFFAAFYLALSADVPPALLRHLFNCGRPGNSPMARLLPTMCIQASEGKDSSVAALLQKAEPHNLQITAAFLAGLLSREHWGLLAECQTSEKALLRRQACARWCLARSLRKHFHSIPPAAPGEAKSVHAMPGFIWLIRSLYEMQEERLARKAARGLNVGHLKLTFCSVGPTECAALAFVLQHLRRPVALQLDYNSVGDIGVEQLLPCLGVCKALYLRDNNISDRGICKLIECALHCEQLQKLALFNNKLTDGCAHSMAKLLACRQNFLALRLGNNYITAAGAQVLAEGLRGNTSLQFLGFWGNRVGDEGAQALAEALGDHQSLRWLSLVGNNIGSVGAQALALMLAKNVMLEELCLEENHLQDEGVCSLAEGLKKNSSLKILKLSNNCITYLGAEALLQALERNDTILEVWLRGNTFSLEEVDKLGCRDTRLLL

On to `O=[N+]([O-])c1cccnc1S(=O)(=O)c1ccccc1`, for which the EC50 is 4.24 µM (inconclusive) in [1]; 12.4 µM (active) in experiment [2]; 2.63 µM (active) in experiment [4]; > 20 µM (inactive) in [6]; 3.71 µM (active) in experiment [8]; 4.16 µM (active) in experiment [10]. The EC50 in [11] was 11.9 µM (active). The IC50 in [3] was 2.38 µM (active); in experiment [5] it was 11.6 µM (active); in [7], 4.56 µM (active); in experiment [9] it was > 20 µM (inactive). The AC50 was 4.79 µM (active) in experiment [12], 51 µM (active) in experiment [13], 5.79 µM (active) in experiment [14] and 24.2 µM (active) in experiment [15].
